Results reported in ChEMBL document CHEMBL1131172 (J Med Chem, 1998).

Experiments:
Type in all cases: functional
[1] = system: HCT-15; experiment: inhibition of the growth of colon cancer(HCT-15) cell line; details: Homo sapiens
[2] = system: SR; experiment: Inhibition of the growth of leukemia(SR) cell line at 0.01 uM; details: Homo sapiens
[3] = system: SF-295; experiment: inhibition of the growth of CNS cancer(SF-295) cell line; details: Homo sapiens
[4] = system: HCT-116; experiment: inhibition of the growth of colon cancer(HCT116) cell line; details: Homo sapiens
[5] = system: IGROV-1; experiment: Inhibition of the growth of ovarian cancer(IGROVI) cell line at 0.01 uM; details: Homo sapiens
[6] = system: 786-0; experiment: Inhibition of the growth of renal cancer(786-0) cell line at 0.01 uM; details: Homo sapiens
[7] = system: NCI-H322M; experiment: Inhibition of the growth of non-small-cell lung cancer (NCI-H322M) cell line at 0.01 uM; details: Homo sapiens
[8] = system: NCI-H322M; experiment: inhibition of the growth of non-small-cell lung cancer (NCI-H322M) cell line; details: Homo sapiens
[9] = system: DU-145; experiment: Inhibition of the growth of prostate cancer(DU-145) cell line at 0.01 uM; details: Homo sapiens
[10] = target: T1, Dihydrofolate reductase (Rattus norvegicus, UniProt Q920D2); experiment: Inhibitory activity against dihydrofolate reductase(DHFR) from rat liver
T1 sequence (Q920D2 whole entry): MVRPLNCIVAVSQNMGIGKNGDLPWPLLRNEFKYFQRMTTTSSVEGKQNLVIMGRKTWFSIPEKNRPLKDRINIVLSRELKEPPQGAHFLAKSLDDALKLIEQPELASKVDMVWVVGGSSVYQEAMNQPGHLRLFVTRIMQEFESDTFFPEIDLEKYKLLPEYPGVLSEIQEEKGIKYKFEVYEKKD

[11] = system: OVCAR-8; experiment: Inhibition of the growth of ovarian cancer(OVCAR-8) cell line at 0.01 uM; details: Homo sapiens
[12] = system: NCI-H23; experiment: inhibition of the growth of non-small-cell lung cancer (NCI-H23) cell line; details: Homo sapiens
[13] = system: RPMI-8226; experiment: inhibition of the growth of leukemia (RPMI-8226) cell line; details: Homo sapiens
[14] = target: T2, Bifunctional dihydrofolate reductase-thymidylate synthase (Toxoplasma gondii, UniProt Q07422); experiment: Inhibitory activity against dihydrofolate reductase(DHFR) from Toxoplasma gondii
T2 sequence (Q07422 whole entry): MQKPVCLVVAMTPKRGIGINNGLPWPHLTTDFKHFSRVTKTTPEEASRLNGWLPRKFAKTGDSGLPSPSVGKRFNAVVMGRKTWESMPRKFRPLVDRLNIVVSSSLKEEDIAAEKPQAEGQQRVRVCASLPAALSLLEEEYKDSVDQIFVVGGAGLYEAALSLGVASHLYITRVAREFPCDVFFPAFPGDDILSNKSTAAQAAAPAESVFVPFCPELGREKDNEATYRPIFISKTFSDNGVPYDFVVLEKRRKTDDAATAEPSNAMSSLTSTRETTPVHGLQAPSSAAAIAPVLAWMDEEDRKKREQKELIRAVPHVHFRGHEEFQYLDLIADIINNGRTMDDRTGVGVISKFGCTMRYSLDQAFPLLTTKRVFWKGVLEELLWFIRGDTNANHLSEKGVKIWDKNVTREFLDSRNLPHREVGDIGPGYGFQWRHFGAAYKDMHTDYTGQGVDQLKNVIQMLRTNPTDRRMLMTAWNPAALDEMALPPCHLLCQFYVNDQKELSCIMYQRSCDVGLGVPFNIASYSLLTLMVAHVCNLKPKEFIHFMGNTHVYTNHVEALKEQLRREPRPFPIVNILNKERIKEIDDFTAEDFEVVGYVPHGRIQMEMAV

[15] = system: NCI-H23; experiment: Inhibition of the growth of non-small-cell lung cancer (NCI-H23) cell line at 0.01 uM; details: Homo sapiens
[16] = system: NCI-H460; experiment: inhibition of the growth of non-small-cell lung cancer (NCI-H460) cell line; details: Homo sapiens
[17] = system: A549; experiment: inhibition of the growth of non-small-cell lung cancer (A549/ATCC) cell line; details: Homo sapiens
[18] = system: DU-145; experiment: inhibition of the growth of prostate cancer(DU-145) cell line; details: Homo sapiens
[19] = system: MOLT-4; experiment: inhibition of the growth of leukemia (MOLT-4) cell line; details: Homo sapiens
[20] = system: NCI/ADR-RES; experiment: inhibition of the growth of breast cancer (MCF7/ADR-RES) cell line; details: Homo sapiens
[21] = system: NCI/ADR-RES; experiment: Inhibition of the growth of breast cancer (MCF7/ADR-RES) cell line at 0.01 uM; details: Homo sapiens
[22] = system: 786-0; experiment: inhibition of the growth of renal cancer(786-0) cell line; details: Homo sapiens
[23] = system: SF-539; experiment: inhibition of the growth of CNS cancer(SF-539) cell line; details: Homo sapiens
[24] = system: M14; experiment: Inhibition of the growth of melanoma cancer (M14) cell line at 0.01 uM; details: Homo sapiens
[25] = system: MDA-N; experiment: inhibition of the growth of breast cancer(MDA-N) cell line; details: Homo sapiens
[26] = system: A549; experiment: Inhibition of the growth of non-small-cell lung cancer (A549/ATCC) cell line at 0.01 uM; details: Homo sapiens
[27] = system: IGROV-1; experiment: inhibition of the growth of ovarian cancer(IGROVI) cell line; details: Homo sapiens
[28] = system: SNB-19; experiment: Inhibition of the growth of CNS cancer(SNB-19) cell line at 0.01 uM; details: Homo sapiens
[29] = system: OVCAR-8; experiment: inhibition of the growth of ovarian cancer(OVCAR-8) cell line; details: Homo sapiens
[30] = system: UO-31; experiment: inhibition of the growth of renal cancer(UO-31) cell line; details: Homo sapiens
[31] = system: CAKI-1; experiment: inhibition of the growth of renal cancer(CAKI-1) cell line; details: Homo sapiens
[32] = system: SR; experiment: inhibition of the growth of leukemia(SR) cell line; details: Homo sapiens
[33] = system: MDA-MB-435; experiment: Inhibition of the growth of breast cancer (MDA-MB-435) cell line; details: Homo sapiens
[34] = system: SF-268; experiment: inhibition of the growth of CNS cancer(SF-268) cell line; details: Homo sapiens
[35] = system: KM12; experiment: inhibition of the growth of colon cancer(KM-12) cell line. value in parentheses is percent inhibition at 0.01 uM; details: Homo sapiens
[36] = system: MDA-N; experiment: Inhibition of the growth of breast cancer(MDA-N) cell line at 0.01 uM; details: Homo sapiens
[37] = system: SK-MEL-5; experiment: inhibition of the growth of melanoma cancer (SK-MEL-5) cell line; details: Homo sapiens
[38] = system: NCI-H522; experiment: inhibition of the growth of non-small-cell lung cancer (NCI-H522) cell line; details: Homo sapiens
[39] = system: HCT-116; experiment: Inhibition of the growth of colon cancer(HCT116) cell line at 0.01 uM; details: Homo sapiens
[40] = system: CAKI-1; experiment: Inhibition of the growth of renal cancer(CAKI-1) cell line at 0.01 uM; details: Homo sapiens
[41] = system: SF-539; experiment: Inhibition of the growth of CNS cancer(SF-539) cell line at 0.01 uM; details: Homo sapiens
[42] = system: MDA-MB-435; experiment: Inhibition of the growth of breast cancer (MDA-MB-435) cell line at 0.01 uM; details: Homo sapiens
[43] = system: MCF7; experiment: inhibition of the growth of breast cancer (MCF-7) cell line; details: Homo sapiens
[44] = system: SK-MEL-5; experiment: Inhibition of the growth of melanoma cancer (SK-MEL-5) cell line at 0.01 uM; details: Homo sapiens
[45] = system: SNB-19; experiment: inhibition of the growth of CNS cancer(SNB-19) cell line; details: Homo sapiens
[46] = system: M14; experiment: inhibition of the growth of melanoma cancer (M14) cell line; details: Homo sapiens
[47] = system: SF-295; experiment: Inhibition of the growth of CNS cancer(SF-295) cell line at 0.01 uM; details: Homo sapiens
[48] = system: NCI-H460; experiment: Inhibition of the growth of non-small-cell lung cancer (NCI-H460) cell line at 0.01 uM; details: Homo sapiens
[49] = system: UO-31; experiment: Inhibition of the growth of renal cancer(UO-31) cell line at 0.01 uM; details: Homo sapiens
[50] = system: NCI-H522; experiment: Inhibition of the growth of non-small-cell lung cancer (NCI-H522) cell line at 0.01 uM; details: Homo sapiens
[51] = system: HCT-15; experiment: Inhibition of the growth of colon cancer(HCT-15) cell line at 0.01 uM; details: Homo sapiens
[52] = system: RPMI-8226; experiment: Inhibition of the growth of leukemia (RPMI-8226) cell line at 0.01 uM; details: Homo sapiens
[53] = system: SF-268; experiment: Inhibition of the growth of CNS cancer(SF-268) cell line at 0.01 uM; details: Homo sapiens

Structure (SMILES): CN(c1ccc2ccccc2c1)c1ccc2nc(N)nc(N)c2n1
- GI50 [1]: < 10 nM
- inhibition at 0.01 µM [2]: 57%
- GI50 [3]: < 10 nM
- GI50 [4]: < 10 nM
- inhibition at 0.01 µM [5]: 65%
- inhibition at 0.01 µM [6]: 54%
- inhibition at 0.01 µM [7]: 56%
- GI50 [8]: < 10 nM
- inhibition at 0.01 µM [9]: 51%
- IC50 [10]: 9.9 nM
- inhibition at 0.01 µM [11]: 95%
- GI50 [12]: < 10 nM
- GI50 [13]: < 10 nM
- IC50 [14]: 14.5 nM
- inhibition at 0.01 µM [15]: 63%
- GI50 [16]: < 10 nM
- GI50 [17]: < 10 nM
- GI50 [18]: < 10 nM
- GI50 [19]: 20 nM
- GI50 [20]: < 10 nM
- inhibition at 0.01 µM [21]: 100%
- GI50 [22]: < 10 nM
- GI50 [23]: < 10 nM
- inhibition at 0.01 µM [24]: 54%
- GI50 [25]: < 10 nM
- inhibition at 0.01 µM [26]: 65%
- GI50 [27]: < 10 nM
- inhibition at 0.01 µM [28]: 62%
- GI50 [29]: < 10 nM
- GI50 [30]: < 10 nM
- GI50 [31]: < 10 nM
- GI50 [32]: < 10 nM
- GI50 [33]: < 10 nM
- GI50 [34]: < 10 nM
- GI50 [35]: 10 nM
- inhibition at 0.01 µM [36]: 75%
- GI50 [37]: < 10 nM
- GI50 [38]: < 10 nM
- inhibition at 0.01 µM [39]: 85%
- inhibition at 0.01 µM [40]: 74%
- inhibition at 0.01 µM [41]: 66%
- inhibition at 0.01 µM [42]: 66%
- GI50 [43]: 30 nM
- inhibition at 0.01 µM [44]: 77%
- GI50 [45]: < 10 nM
- GI50 [46]: < 10 nM
- inhibition at 0.01 µM [47]: 63%
- inhibition at 0.01 µM [48]: 79%
- inhibition at 0.01 µM [49]: 54%
- inhibition at 0.01 µM [50]: 60%
- inhibition at 0.01 µM [51]: 69%
- inhibition at 0.01 µM [52]: 66%
- inhibition at 0.01 µM [53]: 52%
